According to patent publication US20240246942A1, “KINASE INHIBITORS FOR THE TREATMENT OF NEURODEGENERATIVE DISEASES” (priority 2020, published 2024):
Where two headings read alike, the source gives them in different places.

Experiments:
JNK1 = JNK1 (Homo sapiens, UniProt P45983); experiment: JNK1 homogeneous time-resolved fluorescence enzyme inhibition assay; format: biochemical; details: for R: ratio of IC50 values of JNK1 over JNK3: isoform selectivity against JNK1
Method: (§1) A 10-point titration of all compounds was carried out in 3-fold dilutions from 10 μM to 0.5 nM.

JNK3α1 = JNK3α1 (Homo sapiens, UniProt P53779); format: biochemical
Chain of JNK3α1 (P53779 1-422 isoform P53779-2): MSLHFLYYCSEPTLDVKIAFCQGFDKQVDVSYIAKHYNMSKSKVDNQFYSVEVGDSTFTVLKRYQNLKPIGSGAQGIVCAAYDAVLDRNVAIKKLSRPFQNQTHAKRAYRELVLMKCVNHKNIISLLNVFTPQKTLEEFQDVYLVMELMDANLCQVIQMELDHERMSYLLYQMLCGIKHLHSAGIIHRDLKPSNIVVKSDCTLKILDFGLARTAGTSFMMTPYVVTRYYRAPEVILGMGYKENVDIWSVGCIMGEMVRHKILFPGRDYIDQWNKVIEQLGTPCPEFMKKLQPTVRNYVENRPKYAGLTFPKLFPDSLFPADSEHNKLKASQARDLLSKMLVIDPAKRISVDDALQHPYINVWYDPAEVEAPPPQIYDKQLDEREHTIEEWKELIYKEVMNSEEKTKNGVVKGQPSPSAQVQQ
Method: as §1

p38α = p38α (Homo sapiens, UniProt Q16539); experiment: p38 enzyme inhibition assay; details: mean of ≥2 experiments; read-out: Biochemical inhibition IC50 p38α
Chain of p38α (Q16539 whole entry): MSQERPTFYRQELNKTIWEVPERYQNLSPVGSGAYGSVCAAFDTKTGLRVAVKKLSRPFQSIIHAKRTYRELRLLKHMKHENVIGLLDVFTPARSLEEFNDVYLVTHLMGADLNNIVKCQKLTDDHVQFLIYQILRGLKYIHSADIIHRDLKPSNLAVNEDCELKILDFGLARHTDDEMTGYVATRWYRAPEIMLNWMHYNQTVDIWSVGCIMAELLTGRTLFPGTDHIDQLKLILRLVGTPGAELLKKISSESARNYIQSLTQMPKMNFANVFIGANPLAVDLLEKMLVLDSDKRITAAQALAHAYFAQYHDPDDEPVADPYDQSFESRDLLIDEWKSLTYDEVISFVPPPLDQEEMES

CYP3A4 = CYP3A4 (Homo sapiens, UniProt P08684); experiment: P450 cocktail inhibition assay, CYP3A4; format: in vitro ADME; details: at 10 μM
Chain of CYP3A4 (P08684 whole entry, canonical isoform): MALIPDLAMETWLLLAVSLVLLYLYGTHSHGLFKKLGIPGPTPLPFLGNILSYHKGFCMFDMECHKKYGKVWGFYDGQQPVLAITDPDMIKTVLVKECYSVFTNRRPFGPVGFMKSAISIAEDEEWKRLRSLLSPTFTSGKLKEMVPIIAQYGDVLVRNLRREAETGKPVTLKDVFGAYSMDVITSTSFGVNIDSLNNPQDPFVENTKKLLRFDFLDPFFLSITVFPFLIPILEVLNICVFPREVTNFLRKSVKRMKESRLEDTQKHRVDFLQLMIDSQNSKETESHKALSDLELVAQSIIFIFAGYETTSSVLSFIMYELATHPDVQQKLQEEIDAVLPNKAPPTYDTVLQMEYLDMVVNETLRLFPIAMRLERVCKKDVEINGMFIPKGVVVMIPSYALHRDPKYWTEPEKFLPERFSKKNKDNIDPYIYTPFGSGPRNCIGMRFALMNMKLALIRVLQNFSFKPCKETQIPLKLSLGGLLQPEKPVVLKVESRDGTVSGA
Method: (§2) P450s inhibition for four major isoforms are evaluated using a cocktail inhibition assay where the metabolism of specific marker substrate (CYP1A2 phenaceten […] to acetaminophen); CYP2C9, tolbutamide hydroxylation to hydrocytolbutamide; CYP2D6, bufuralol hydroxylation to […]; and CYP3A4, midazolam hydroxylation to 1′-Hydroxymidazolam) in the presence or absence of 10 TM probe compound is evaluated. The concentration of each marker substrate is approximately its Km. […] Specific inhibitors for each isoform are included in each run to validate the system.

CYP2C9 = CYP2C9 (Homo sapiens, UniProt P11712); experiment: P450 cocktail inhibition assay, CYP2C9; format: in vitro ADME; details: at 10 μM
Chain of CYP2C9 (P11712 whole entry): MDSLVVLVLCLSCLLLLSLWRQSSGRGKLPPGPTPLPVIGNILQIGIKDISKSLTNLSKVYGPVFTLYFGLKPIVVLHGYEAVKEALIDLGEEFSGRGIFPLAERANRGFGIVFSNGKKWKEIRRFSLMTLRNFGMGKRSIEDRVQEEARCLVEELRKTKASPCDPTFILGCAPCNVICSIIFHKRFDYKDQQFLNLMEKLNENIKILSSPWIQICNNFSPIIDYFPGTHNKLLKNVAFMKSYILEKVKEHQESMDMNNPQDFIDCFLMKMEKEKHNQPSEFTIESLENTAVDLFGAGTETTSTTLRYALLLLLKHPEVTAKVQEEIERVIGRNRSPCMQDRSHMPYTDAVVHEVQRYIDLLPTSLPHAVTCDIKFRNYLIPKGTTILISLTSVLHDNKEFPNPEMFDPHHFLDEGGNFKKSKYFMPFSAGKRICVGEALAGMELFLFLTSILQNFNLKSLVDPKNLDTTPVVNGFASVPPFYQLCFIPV
Method: as §2

JNK2 = JNK2 (Homo sapiens, UniProt P45984); experiment: JNK2 homogeneous time-resolved fluorescence enzyme inhibition assay; format: biochemical; details: for R: ratio of IC50 values of JNK2 over JNK3: isoform selectivity against JNK2; for IC50: mean of ≥2 experiments, read-out: Biochemical inhibition IC50 JNK2
Chain of JNK2 (P45984 whole entry, canonical isoform): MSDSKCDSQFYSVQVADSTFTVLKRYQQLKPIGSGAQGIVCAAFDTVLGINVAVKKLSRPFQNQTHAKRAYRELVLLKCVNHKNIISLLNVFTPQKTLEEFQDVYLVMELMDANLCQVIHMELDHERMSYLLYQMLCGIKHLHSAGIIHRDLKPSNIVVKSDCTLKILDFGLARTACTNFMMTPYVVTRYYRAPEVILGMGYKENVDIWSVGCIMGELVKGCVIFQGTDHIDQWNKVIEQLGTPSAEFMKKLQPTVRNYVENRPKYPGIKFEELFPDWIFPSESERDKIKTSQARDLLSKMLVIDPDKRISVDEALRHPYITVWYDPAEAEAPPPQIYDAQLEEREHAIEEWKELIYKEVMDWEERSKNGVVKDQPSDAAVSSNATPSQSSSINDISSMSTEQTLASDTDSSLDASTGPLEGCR
Method: as §1

[1] = Microsomal stability, human; format: in vitro ADME; details: human microsomes
CYP1A2 = target: T1, CYP1A2 (Homo sapiens, UniProt P05177); experiment: P450 cocktail inhibition assay, CYP1A2; format: in vitro ADME; details: at 10 μM
T1 sequence (P05177 1-516): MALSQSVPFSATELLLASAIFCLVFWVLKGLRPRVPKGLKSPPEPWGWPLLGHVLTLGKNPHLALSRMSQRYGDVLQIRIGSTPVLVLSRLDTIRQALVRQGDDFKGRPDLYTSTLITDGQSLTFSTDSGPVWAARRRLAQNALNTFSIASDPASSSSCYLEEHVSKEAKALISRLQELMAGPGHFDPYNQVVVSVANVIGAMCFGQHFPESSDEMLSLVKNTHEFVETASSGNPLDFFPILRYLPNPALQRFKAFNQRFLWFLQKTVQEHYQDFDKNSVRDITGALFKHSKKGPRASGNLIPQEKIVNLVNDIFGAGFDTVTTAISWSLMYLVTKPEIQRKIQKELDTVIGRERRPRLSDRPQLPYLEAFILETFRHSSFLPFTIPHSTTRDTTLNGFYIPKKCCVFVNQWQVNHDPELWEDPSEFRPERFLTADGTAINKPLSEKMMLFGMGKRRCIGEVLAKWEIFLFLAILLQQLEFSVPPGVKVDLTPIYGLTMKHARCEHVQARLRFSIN
Method: as §2

CYP2D6 = CYP2D6 (Homo sapiens, UniProt P10635); experiment: P450 cocktail inhibition assay, CYP2D6; format: in vitro ADME; details: at 10 μM
Chain of CYP2D6 (P10635 whole entry): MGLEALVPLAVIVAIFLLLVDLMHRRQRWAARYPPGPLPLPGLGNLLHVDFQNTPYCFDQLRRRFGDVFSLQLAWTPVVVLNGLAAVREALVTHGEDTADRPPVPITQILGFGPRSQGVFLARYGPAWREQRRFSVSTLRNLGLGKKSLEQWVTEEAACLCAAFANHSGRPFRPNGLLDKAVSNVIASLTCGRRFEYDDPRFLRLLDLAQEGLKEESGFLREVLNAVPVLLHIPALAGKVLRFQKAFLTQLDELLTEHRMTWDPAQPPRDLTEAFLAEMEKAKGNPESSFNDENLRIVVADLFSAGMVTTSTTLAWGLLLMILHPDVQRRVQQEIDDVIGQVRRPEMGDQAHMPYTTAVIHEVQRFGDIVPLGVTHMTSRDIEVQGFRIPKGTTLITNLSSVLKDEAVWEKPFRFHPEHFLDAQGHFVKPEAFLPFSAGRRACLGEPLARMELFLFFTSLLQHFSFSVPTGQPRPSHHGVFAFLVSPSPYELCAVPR
Method: as §2

[2] = Microsomal stability, mouse; format: in vitro ADME; details: mouse microsomes
SHSY5Y cells = experiment: MTT cytotoxicity assay; format: cell-based; parameters: dose or concentration left out as unconfirmed; details: 48 hrs, average of ≥2 experiments;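 note: compounds tested at 10 µM final concentration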
Method: A day before the assay, cells were plated at 50,000/well in 96 well plates in the culture medium. […] After the incubation, cells were subjected to MTT assay using Vybrant MTT Cell Proliferation kit as directed by the vendor (Life Technologies).

[3] = mean of ≥2 experiments, read-out: Biochemical inhibition IC50 JNK1
[4] = mean of ≥2 experiments, read-out: Biochemical inhibition IC50 JNK3

Chain of JNK1 (P45983 whole entry, canonical isoform): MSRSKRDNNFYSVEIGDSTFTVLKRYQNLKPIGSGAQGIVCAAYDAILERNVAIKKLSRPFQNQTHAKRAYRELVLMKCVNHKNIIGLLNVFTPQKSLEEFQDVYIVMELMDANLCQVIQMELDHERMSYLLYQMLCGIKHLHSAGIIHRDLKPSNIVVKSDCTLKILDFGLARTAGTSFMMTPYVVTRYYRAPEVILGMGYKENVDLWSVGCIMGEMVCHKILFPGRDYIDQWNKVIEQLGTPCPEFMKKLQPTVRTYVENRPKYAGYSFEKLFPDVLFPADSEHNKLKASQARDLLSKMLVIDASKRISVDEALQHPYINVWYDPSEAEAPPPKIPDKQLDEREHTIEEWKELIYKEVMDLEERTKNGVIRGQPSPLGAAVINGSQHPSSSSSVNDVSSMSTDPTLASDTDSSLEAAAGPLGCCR

Row | Structure (SMILES) | R: ratio of IC50 values of JNK1 over JNK3 (JNK1) | IC50 (JNK1; [3]) [µM] | IC50 (JNK3α1; [4]) [µM] | IC50 (p38α) [µM] | other results
1 | CN1CC[C@@H](NC(=O)c2cc(-n3cc(NC(=O)Nc4ccccc4Cl)cn3)cs2)C1 [Compound 10, (R)-4-(4-(3-(2-chlorophenyl)ureido)-1H-pyrazol-1-yl)-N-(1-methylpyrrolidin-3-yl)thiophene-2-carboxamide] | 60 | 5.1 | 0.085 | – | –
2 | CN1CCC(CNC(=O)c2cc(-n3cc(NC(=O)Nc4ccccc4Cl)cn3)cs2)CC1 [Compound 19, 4-(4-(3-(2-chlorophenyl)ureido)-1H-pyrazol-1-yl)-N-((1-methylpiperidin-4-yl)methyl)thiophene-2-carboxamide] | 41 | 5.8 | 0.142 | > 20 | –
3 | CC(C)N1CC[C@H](NC(=O)c2cc(-n3cc(NC(=O)Nc4ccccc4Cl)cn3)cs2)C1 [Compound 13, (S)-4-(4-(3-(2-chlorophenyl)ureido)-1H-pyrazol-1-yl)-N-(1-isopropylpyrrolidin-3-yl)thiophene-2-carboxamide] | 60 | 0.72 | 0.012 | – | –
4 | CN1CCC(NC(=O)c2cc(-n3cc(NC(=O)Nc4ccccc4Cl)cn3)cs2)CC1 [Compound 14, 4-(4-(3-(2-chlorophenyl)ureido)-1H-pyrazol-1-yl)-N-(1-methylpiperidin-4-yl)thiophene-2-carboxamide] | – | 4.2 | 0.084 | > 20 | CYP-450 % inh. 3A4 (CYP3A4): −34%; CYP-450 % inh. 2C9 (CYP2C9): −19%; R: ratio of IC50 values of JNK2 over JNK3 (JNK2): 33; IC50 (JNK2): 2.77 µM; Mic. stability t1/2 Human [1]: 92 min; CYP-450 % inh. 1A2 (CYP1A2): −6%; CYP-450 % inh. 2D6 (CYP2D6): −5%; Mic. stability t1/2 Mouse [2]: 15 min; MTT cell viability (SHSY5Y cells): 89%
5 | O=C(Nc1cnn(-c2csc(C(=O)NC[C@H]3CCOC3)c2)c1)Nc1ccccc1Cl [Compound 22, (R)-4-(4-(3-(2-chlorophenyl)ureido)-1H-pyrazol-1-yl)-N-((tetrahydrofuran-3-yl)methyl)thiophene-2-carboxamide] | 31 | 2.2 | 0.071 | – | –
6 | CN1CC[C@H](CNC(=O)c2cc(-n3cc(NC(=O)Nc4ccccc4Cl)cn3)cs2)C1 [Compound 21, (R)-4-(4-(3-(2-chlorophenyl)ureido)-1H-pyrazol-1-yl)-N-((1-methylpyrrolidin-3-yl)methyl)thiophene-2-carboxamide] | 46 | 10.3 | 0.222 | – | –
7 | CN1CC[C@H](NC(=O)c2cc(-n3cc(NC(=O)Nc4ccccc4Cl)cn3)cs2)C1 [Compound 12, (S)-4-(4-(3-(2-chlorophenyl)ureido)-1H-pyrazol-1-yl)-N-(1-methylpyrrolidin-3-yl)thiophene-2-carboxamide] | 56 | 2.2 | 0.039 | – | CYP-450 % inh. 3A4 (CYP3A4): −18%; CYP-450 % inh. 2C9 (CYP2C9): −9%; isoform selectivity against JNK2 vs JNK3 (JNK2): around 40 folds; R: ratio of IC50 values of JNK2 over JNK3 (JNK2): 39; IC50 (JNK2): 1.51 µM; Mic. stability t1/2 Human [1]: 54 min; CYP-450 % inh. 1A2 (CYP1A2): −1%; CYP-450 % inh. 2D6 (CYP2D6): 20%; Mic. stability t1/2 Mouse [2]: 20 min; MTT cell viability (SHSY5Y cells): 94%
8 | CC1(NC(=O)c2cc(-n3cc(NC(=O)Nc4ccccc4Cl)cn3)cs2)COC1 [Compound 18, 4-(4-(3-(2-chlorophenyl)ureido)-1H-pyrazol-1-yl)-N-(3-methyloxetan-3-yl)thiophene-2-carboxamide] | 73 | 3.3 | 0.045 | > 20 | –
9 | O=C(Nc1cnn(-c2cc(C(=O)NC3CNC3)cs2)c1)Nc1ccccc1Cl [Compound 5, N-(azetidin-3-yl)-5-(4-(3-(2-chlorophenyl)ureido)-1H-pyrazol-1-yl)thiophene-3-carboxamide] | – | – | 0.2 | – | –
10 | O=C(Nc1cnn(-c2csc(C(=O)NC3CCOCC3)c2)c1)Nc1ccccc1Cl [Compound 15, 4-(4-(3-(2-chlorophenyl)ureido)-1H-pyrazol-1-yl)-N-(tetrahydro-2H-pyran-4-yl)thiophene-2-carboxamide] | 38 | 1.9 | 0.05 | > 20 | CYP-450 % inh. 3A4 (CYP3A4): −35%; CYP-450 % inh. 2C9 (CYP2C9): 7%; R: ratio of IC50 values of JNK2 over JNK3 (JNK2): 21; IC50 (JNK2): 1.05 µM; Mic. stability t1/2 Human [1]: 32 min; CYP-450 % inh. 1A2 (CYP1A2): 32%; CYP-450 % inh. 2D6 (CYP2D6): 0%; Mic. stability t1/2 Mouse [2]: 16 min; MTT cell viability (SHSY5Y cells): 97%
11 | O=C(Nc1cnn(-c2csc(C(=O)NC3CNC3)c2)c1)Nc1ccccc1Cl [Compound 6, N-(azetidin-3-yl)-4-(4-(3-(2-chlorophenyl)ureido)-1H-pyrazol-1-yl)thiophene-2-carboxamide] | 72 | 3.6 | 0.05 | > 20 | isoform selectivity against JNK1 (JNK1; JNK3 over JNK1, text): 72 fold
12 | O=C(Nc1cnn(-c2csc(C(=O)N[C@@H]3CCNC3)c2)c1)Nc1ccccc1Cl [Compound 9, (R)-4-(4-(3-(2-chlorophenyl)ureido)-1H-pyrazol-1-yl)-N-(pyrrolidin-3-yl)thiophene-2-carboxamide] | – | 5.9 | 0.132 | – | –
13 | CNC(=O)c1cc(-n2cc(NC(=O)Nc3ccccc3Cl)cn2)cs1 [Compound 7, 4-(4-(3-(2-chlorophenyl)ureido)-1H-pyrazol-1-yl)-N-methylthiophene-2-carboxamide] | – | – | – | > 20 | IC50 (JNK1): > 20 µM
14 | [2H]C([2H])([2H])N1CC[C@@H](NC(=O)c2cc(-n3cc(NC(=O)Nc4ccccc4Cl)cn3)cs2)C1 [Compound 11, (R)-4-(4-(3-(2-chlorophenyl)ureido)-1H-pyrazol-1-yl)-N-(1-(methyl-d3)pyrrolidin-3-yl)thiophene-2-carboxamide] | 61 | 5.1 | 0.083 | – | –
15 | CN1CCC[C@H]1CNC(=O)c1cc(-n2cc(NC(=O)Nc3ccccc3Cl)cn2)cs1 [Compound 23, (S)-4-(4-(3-(2-chlorophenyl)ureido)-1H-pyrazol-1-yl)-N-((1-methylpyrrolidin-2-yl)methyl)thiophene-2-carboxamide] | 107 | 9.1 | 0.085 | – | –
16 | O=C(Nc1cnn(-c2nc(C(=O)NC3CNC3)cs2)c1)Nc1ccccc1Cl [Compound 3, N-(azetidin-3-yl)-2-(4-(3-(2-chlorophenyl)ureido)-1H-pyrazol-1-yl)thiazole-4-carboxamide] | – | – | – | – | inhibition of JNK1 (JNK1; in words, FIG. 3): no inhibition; inhibition of JNK3 (JNK3α1; in words, FIG. 3): no inhibition
17 | O=C(Nc1cnn(-c2csc(C(=O)N[C@@H]3CCOC3)c2)c1)Nc1ccccc1Cl [Compound 16, (R)-4-(4-(3-(2-chlorophenyl)ureido)-1H-pyrazol-1-yl)-N-(tetrahydrofuran-3-yl)thiophene-2-carboxamide] | 188 | 1.5 | – | – | CYP-450 % inh. 3A4 (CYP3A4): −20%; IC50 (JNK3α1; read-out: JNK3 inhibitory activity IC50): 0.008 µM; CYP-450 % inh. 2C9 (CYP2C9): 38%; isoform selectivity against JNK2 vs JNK3 (JNK2): > 250 folds; R: ratio of IC50 values of JNK2 over JNK3 (JNK2): 253; IC50 (JNK2): 2.02 µM; Mic. stability t1/2 Human [1]: 33 min; CYP-450 % inh. 1A2 (CYP1A2): 17%; CYP-450 % inh. 2D6 (CYP2D6): 1%; Mic. stability t1/2 Mouse [2]: 13 min; MTT cell viability (SHSY5Y cells): 112%
18 | O=C(Nc1cnn(-c2ccc(C(=O)NC3CNC3)s2)c1)Nc1ccccc1Cl [Compound 4, N-(azetidin-3-yl)-5-(4-(3-(2-chlorophenyl)ureido)-1H-pyrazol-1-yl)thiophene-2-carboxamide] | – | – | 0.8 | – | –
19 | O=C(Nc1cnn(-c2csc(C(=O)NCC3CCNCC3)c2)c1)Nc1ccccc1Cl [Compound 20, 4-(4-(3-(2-chlorophenyl)ureido)-1H-pyrazol-1-yl)-N-(piperidin-4-ylmethyl)thiophene-2-carboxamide] | – | 6.6 | – | > 20 | –
